Laboratory results reported in patent US20200268847A1, “Methods of Treating Newly Diagnosed Multiple Myeloma with a Combination of An Antibody that Specifically Binds CD38, Lenalidomide and Dexamethasone” (Janssen Biotech, Inc., priority 2019, published 2020).

Assays:
[1] = system: transplant-ineligible NDMM patients; assay: MAIA subgroup analysis by age (<75 vs >75 y): safety (TEAEs, discontinuations); assay type: in vivo, human
Method: To examine the impact of age on the efficacy and safety of D-Rd vs Rd in this patient population, a subgroup analysis was conducted within patients <75 and >75 y of age.
Transplant-ineligible NDMM patients were randomized 1:1 to Rd±DARA; stratification was based on age (<75 vs >75 years), ISS (I, II, III), and region (North America vs Other). In standard Rd dosing, patients received 28-day cycles of lenalidomide 25 mg PO QD on Days 1-21 and dexamethasone 40 mg PO on Days 1, 8, 15 and 22 until progression. A portion of patients received 10 mg lenalidomide and 20 mg dexamethasone at the beginning of the treatment. In the DRd arm, patients received daratumumab (DARZALEX®) 16 mg/kg IV QW for Cycles 1-2, Q2W for Cycles 3-6, and Q4W thereafter until progression. PFS was the primary endpoint.

[2] = system: newly diagnosed multiple myeloma, patients ineligible for HDC and ASCT; assay: Phase 3 MAIA study (NCT02252172), interim analysis: progression-free survival, response by IMWG criteria, survival; assay type: in vivo, human
Method: Subject participation will include a Screening Phase, a Treatment Phase, and a Follow-up Phase. The Screening Phase will be up to 21 days before Cycle 1, Day 1. The Treatment Phase will extend from Day 1 of Cycle 1 until discontinuation of all study treatment. […] This will equate to […] of dosing at the start of the study and a total of 23 doses in the first year. Lenalidomide will be administered at a dose of 25 mg orally (PO) on Days 1 through 21 of each 28-day cycle, and dexamethasone will be administered at a dose of 40 mg once a week. Subjects in both treatment arms will continue lenalidomide and dexamethasone until disease progression or unacceptable toxicity. […] Randomization will be stratified by International Staging System (I vs II vs III), region (North America vs Other), and age (<75 vs >75), using an equal allocation ratio of 1:1.
The primary endpoint is PFS, which is defined as the duration from the date of randomization to either progressive disease, or death, whichever occurs first. Disease progression will be determined according to the IMWG criteria.
The secondary efficacy endpoints include: • Time to disease progression (TTP) is defined as the time from the date of randomization to the date of first documented evidence of PD, as defined in the IMWG criteria. […] Disease progression will be based on investigator judgment. For those subjects who are still alive and not yet progressed on the next line of treatment, they will be censored on the last date of follow-up. • Overall survival (OS), measured from the date of randomization to the date of the subject's death. […] For subjects without response, data will be censored either at the date of progressive disease or, in the absence of progressive disease, at the last disease evaluation before the start of subsequent anti-myeloma therapy. • Duration of response, calculated from the date of initial documentation of a response (PR or better) to the date of first documented evidence of progressive disease, as defined in the IMWG criteria. For subjects who have not progressed, data will be censored at the last disease evaluation before the start of any subsequent anti-myeloma therapy. • To evaluate clinical efficacy of DRd in high risk molecular subgroups compared to Rd alone. • To evaluate the impact of DRd compared to Rd on patient-reported perception of global health.
Disease evaluations will be performed by a central laboratory (unless otherwise specified). This study will use the IMWG consensus recommendations for multiple myeloma treatment response criteria (Durie et al., Leukemia, 20:[…], 2006, Rajkumar et al., Blood, 117:4691-4695, 2011) presented in Table 1. For quantitative immunoglobulin, M-protein, and immunofixation measurements in serum and 24 hour urine, the investigator will use results provided by the central laboratory.
The primary endpoint was progression-free survival. The study protocol is described in Example 1.
Patients were stratified by International Staging System (ISS; I vs. II vs. III), region (North America vs. Other), and age (<75 years vs. >75 years).
During each 28-day cycle, all patients received oral lenalidomide (25 mg, Days 1-21) and oral dexamethasone (40 mg, Days 1, 8, 15, and 22) until disease progression or unacceptable toxicity. For patients older than 75 years of age or with body mass index less than 18.5 kg/m^2, dexamethasone was administered at a dose of 20 mg once weekly. […] Pre-infusion medications were administered to manage infusion reactions.
The primary endpoint was progression-free survival (time from date of randomization to either disease progression or death).

[3] = grade 3/4 TEAEs, <75 y patients
[4] = grade 3/4 TEAEs, >75 y patients
[5] = ITT population, median follow-up 28.0 months

## daratumumab (DARZALEX®) group: daratumumab (DARZALEX®) in combination with lenalidomide and dexamethasone
[1]; <75 y
  discontinuation rate due to infections: 1%
  discontinued lenalidomide due to TEAEs: 15%
  discontinued treatment due to TEAEs: 5%
[1]; >75 y
  discontinuation rate due to infections: 0%
  discontinued lenalidomide due to TEAEs: 29%
  discontinued treatment due to TEAEs: 10%
[1]; [3]
  anemia: 9%
  leukopenia: 10%
  lymphopenia: 12%
  neutropenia: 43%
  pneumonia: 13%
[1]; [4]
  anemia: 16%
  leukopenia: 12%
  lymphopenia: 19%
  neutropenia: 60%
  pneumonia: 15%
  thrombocytopenia: 8%
[2]; 155 events in total
  events of progression or death while receiving the next line of therapy: 68 patients
[2]; 179 events in total
  patients with disease progression events (time-to-event analysis of disease progression): 17.9%
[2]; DRd vs Rd, primary analysis of MAIA
  reduction of the risk of progression or death: 44%
[2]; ITT population
  Kaplan-Meier estimate of the 30-month rate of progression-free survival: 70.6%
  median time to progression: not being reached
[2]; ITT population (N = 368 vs 369), median follow-up 28.0 months
  Overall response: No. with response: 342
[2]; ITT population, long-term follow-up ongoing
  median overall survival: not reached
[2]; ITT population, median follow-up 28 months
  median progression-free survival: not reached
[2]; [5]
  Best overall response: Complete response: 63 (17.1) no. (%)
  Best overall response: Complete response or better: 175 (47.6) no. (%)
  Best overall response: Partial response: 50 (13.6) no. (%)
  Best overall response: Progressive disease: 1 (0.3) no. (%)
  Best overall response: Response could not be evaluated: 14 (3.8) no. (%)
  Best overall response: Stringent complete response: 112 (30.4) no. (%)
  Best overall response: Very good partial response: 117 (31.8) no. (%)
  Best overall response: Very good partial response or better: 292 (79.3) no. (%)
  Overall response rate: 92.9%
[2]; ITT population, P<0.0001
  rate of complete response or better: 47.6%
  rate of very good partial response or better: 79.3%
[2]; at clinical cutoff date Sep. 24, 2018
  treatment discontinued due to progressive disease: 14.6%
[2]; in vivo
  36-month rate of progression-free survival 2: 77.1%
  median duration of response: not reached
  median time to complete response or better: 10.4 months
  median time to first response among responders: 1.05 months
[2]; median follow-up 28.0 months, 240 events in total
  patients with events of disease progression or death: 26.4%
[2]; number of deaths, 138 in total, median follow-up 28.0 months
  deaths: 62
[2]; progression on next line of therapy or death
  median progression-free survival 2: not reached
